Columns and labels:
in vitro = conditions: human
[1] = system: NALM6.GFP.LUC.CD19 target cells; assay: Serial killing assay; format: cell-based, human
Method: CD19 CAR-T cells were thawed in RPMI media supplemented with HEPES, Penicillin/Streptomycin/L-Glutamine and 10% FBS and rested overnight. The following day, drugs were serially diluted and prepared in 96-well plates. Rested T cells were counted and normalized so that 25,000 or 8,333 T cells were plated with 25,000 NALM6.GFP.LUC.CD19 target cells (1:1 or 1:3 Effector:Target ratio) in the prepared 96-well plates. At 16 hour post-incubation and every 3-4 days, T cell killing of targets was measured via luciferase detection. D-luciferin substrate was added to the co-culture wells at a final concentration of 0.14 mg/mL and plates were incubated at 37° C. in the dark for 10 minutes. Luminescent signal was read immediately after in a VarioSkan™ LUX microplate reader. T cell-mediated cytotoxicity was calculated as follows: % Cytotoxicity=[1−luciferase signal of (sample of interest/target alone control)]*100. Afterwards, co-cultures were stained with LIVE/DEAD and antibodies against CD4, CD8 and KIP-1 and then washed. Cells were then analyzed and quantified via the Attune NxT flow cytometer. T cells were then repeatedly stimulated with fresh 25,000 target cells, and this process was repeated every 3-4 days.

CAR-T cells = assay: CAR-T cell expansion assay (KIP-1 or CD3/CD28 stimulation); conditions: for % viability: CD3/CD28
[2] = system: NALM6.GFP.LUC.CD19 target cells; assay: Serial killing assay of CAR-T, percent cytotoxicity by luciferase detection; conditions: in vitro at clinically relevant dose levels
[3] = system: phospho-STAT-1, -3 and -5 in CD4, CD8 T cells and monocytes (CAR T product, PBMCs); assay: Intracellular phospho-STAT-1, -3, -5 by flow cytometry in immune cell subsets of CAR T product and PBMCs; format: cell-based, human; conditions: for pSTAT-5 inhibition: GM-CSF stimulated PBMC
Method: Further experiments were performed to look at impacts of JAK inhibitors on STAT phosphorylation in various immune cell subsets.

[4] = clinical dosing, patient sera, repeat dose studies; cited from earlier work
[5] = E:T ratio 1:3, all doses tested

## O=C(Nc1nc2cccc(-c3ccc(CN4CCS(=O)(=O)CC4)cc3)n2n1)C1CC1 [filgotinib]
In vitro
  viability at 0 day, 500 nM: 75%
  viability at 0 day, 1000 nM: 75%
  viability at 4 day, 500 nM: 61.1%
  viability at 4 day, 1000 nM: 59.9%
  viability at 8 day, 500 nM: 78.9%
  viability at 8 day, 1000 nM: 85.1%
  viability at 12 day, 500 nM: 91.8%
  viability at 12 day, 1000 nM: 87.7%
[1]; E:T ratio 1:1
  T-cell counts: increased T-cell counts in a dose-dependent manner
  serial killing: enhanced serial killing
[1]; [5]
  T-cell counts: no negative impacts were observed
  serial killing: no negative impacts
CAR-T cells; dose 500 nM, day 4
  % viability: 58.7%
CAR-T cells; dose 500 nM, day 8
  % viability: 65.7%
CAR-T cells; dose 500 nM, day 12
  % viability: 84.5%
CAR-T cells; dose 1000 nM, day 4
  % viability: 73.1%
CAR-T cells; dose 1000 nM, day 8
  % viability: 70.9%
CAR-T cells; dose 1000 nM, day 12
  % viability: 81.6%
CAR-T cells; at the doses tested (Table 40)
  effect on T cell expansion: little to no effect
[2]
  effect on CAR T cells in cell killing, serial killing and T cell expansion assays: not accompanied by a detrimental effect on CAR T cells
[3]; CAR T product
  inhibitory activity of each p-STAT, CD4 versus CD8 T cells: stronger inhibitory activity (magnitudes) of each p-STAT in CD4 T cells compared to CD8 T cells
[3]; CD4 CART cells
  Primary Cell IL-6 pSTAT1 signaling (% inhibition): 45%
  Primary Cell IL-6 pSTAT3 signaling (% inhibition): 50%
  Primary Cell IL-6 pSTAT5 signaling (% inhibition): 59%
[3]; CD8 CART cells
  Primary Cell IL-6 pSTAT1 signaling (% inhibition): 17%
  Primary Cell IL-6 pSTAT3 signaling (% inhibition): 38%
  Primary Cell IL-6 pSTAT5 signaling (% inhibition): 50%
[3]; CD3+ T cells
  pSTAT-5 inhibition: 40%
[3]; CD14+ monocytes
  pSTAT-5 inhibition: 28%
[3]; IL-6 stimulation
  effect on phosphorylated-STAT-1, -STAT-3 and -STAT5 levels: reduction of phosphorylated-STAT-1, -STAT-3 and -STAT5 levels
[3]; Monocytes within bulk PBMCs
  Primary cell GM-CSF-pSTAT5, inhibition: 28%
[3]; PBMC CD4 T cells
  Primary Cell IL-6 pSTAT1 signaling (% inhibition): 67%
  Primary Cell IL-6 pSTAT3 signaling (% inhibition): 52%
  Primary Cell IL-6 pSTAT5 signaling (% inhibition): 83%
[3]; PBMC CD8 T cells
  Primary Cell IL-6 pSTAT1 signaling (% inhibition): 26%
  Primary Cell IL-6 pSTAT3 signaling (% inhibition): 37%
  Primary Cell IL-6 pSTAT5 signaling (% inhibition): 49%
[3]; PBMC Monocytes
  Primary Cell IL-6 pSTAT1 signaling (% inhibition): 50%
  Primary Cell IL-6 pSTAT3 signaling (% inhibition): 74%
  Primary Cell IL-6 pSTAT5 signaling (% inhibition): 34%
[3]; T cells from PBMCs
  inhibitory activity of each p-STAT, CD4 versus CD8 T cells: stronger inhibitory activity (magnitudes) of each p-STAT in CD4 T cells compared to CD8 T cells
[3]; T cells within bulk PBMCs
  Primary cell GM-CSF-pSTAT5, inhibition: 40%
[4]
  Cmax: 1200 ng/mL

From patent US12252701B2, “Chimeric antigen receptor T cell therapy” (KITE PHARMA, INC., priority 2020, dated 2025)
